Consider one compound from patent US7419780B2, “Methods and assays for screening protein targets” (The Trustees of Columbia University in the City of New York, priority 2000, dated 2008).

Holding throughout (type): cell-based, S. cerevisiae
Details in all cases: 1 uM small molecule, difference to activity without small molecule, average of two trials

Experiment [1] deals with T1, LexA (GSG)2rGR2 / B42 (GSG)2eDHFR (UniProt P06536+P0ABQ4, C656G/F620S).
T1 construct: rat Glucocorticoid Receptor (aa 524-795) with point mutations; expressed in transfected cells; host or cells: S. cerevisiae FY250
T1 sequence (P06536 524-795 F620S/C656G limits assumed): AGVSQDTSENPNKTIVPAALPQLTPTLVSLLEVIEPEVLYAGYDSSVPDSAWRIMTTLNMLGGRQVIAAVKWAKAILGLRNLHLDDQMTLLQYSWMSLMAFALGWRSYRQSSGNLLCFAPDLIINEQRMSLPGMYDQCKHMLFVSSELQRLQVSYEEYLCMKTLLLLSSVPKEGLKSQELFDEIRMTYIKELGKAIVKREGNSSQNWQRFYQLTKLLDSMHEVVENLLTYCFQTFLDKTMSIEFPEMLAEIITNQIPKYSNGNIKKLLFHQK
T1 sequence (P0ABQ4 1-159): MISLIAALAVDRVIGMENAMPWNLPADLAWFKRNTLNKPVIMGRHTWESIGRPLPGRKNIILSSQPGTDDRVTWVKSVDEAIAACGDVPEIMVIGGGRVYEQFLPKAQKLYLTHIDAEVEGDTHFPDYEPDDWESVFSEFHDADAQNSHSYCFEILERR
Nature of the experiment: β-galactosidase activity assay, strain V510Y. The text has this:
(§1) Table III explains the components of each strain. Each strain was constructed from the parent yeast strain FY250 and also contains the pMW106 plasmid, which has the LacZ reporter gene that is turned on only in when the LexA DNA binding domain and the B42 activation are brought in tot he vicinity of each other. We use several different strains because we use DHFR from two different species, mDHFR is from murine, while eDHFR is from E. coli. We are asl oable to switch the small moleculebinding domains. For example, the strain containing LexA-eDHFR with B42-rGH2 is a different strain and behaves differently from the strain containing LexA-rGR2 with B42-eDHFR. We also put in short 6 amino acid linkers between the two domains of our protein chimeras and thus these are different strain as well.
(§2) The results in Table IV are averages of two separate trials. Each strain was examined with small molecules and without small molecules. The absolute activity is given as the β-galactisidase activity […]. The average β-galactosidse activity for a strain without small molecule (i.e. the negative control) was about 100 β-galactosidase units.

Experiment [2] has as its target T2, LexA (GSG)2mDHFR / B42 (GSG)rGR2 (UniProt P00375+P06536, C656G/F620S).
T2 construct: rat Glucocorticoid Receptor (aa 524-795) with point mutations; expressed in transfected cells; host or cells: S. cerevisiae FY250
T2 sequence (P00375 1-187): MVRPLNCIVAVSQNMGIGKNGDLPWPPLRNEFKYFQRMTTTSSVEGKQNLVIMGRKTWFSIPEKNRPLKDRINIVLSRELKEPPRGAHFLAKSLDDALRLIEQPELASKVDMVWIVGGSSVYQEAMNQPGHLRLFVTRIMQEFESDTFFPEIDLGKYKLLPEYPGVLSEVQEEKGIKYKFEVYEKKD
T2 sequence (P06536 524-795 F620S/C656G limits assumed): T1 sequence (P06536 524-795 F620S/C656G limits assumed)
The experiment in a line: β-galactosidase activity assay, strain V504Y.
Excerpt: as §1, §2

The target of experiment [3] is T3, LexA mDHFR / B42 gly6rGR2 (UniProt P00375+P06536, C656G/F620S).
T3 construct: rat Glucocorticoid Receptor (aa 524-795) with point mutations; expressed in transfected cells; host or cells: S. cerevisiae FY250
T3 sequence (P00375 1-187): T2 sequence (P00375 1-187)
T3 sequence (P06536 524-795 F620S/C656G limits assumed): T1 sequence (P06536 524-795 F620S/C656G limits assumed)
Nature of the experiment: β-galactosidase activity assay, strain V496Y.
Excerpt: as §1, §2

In experiment [4] the target is T4, LexA eDHFR / B42 gly6rGR2 (UniProt P06536+P0ABQ4, C656G/F620S).
T4 construct: rat Glucocorticoid Receptor (aa 524-795) with point mutations; expressed in transfected cells; host or cells: S. cerevisiae FY250
T4 sequence (P0ABQ4 1-159): T1 sequence (P0ABQ4 1-159)
T4 sequence (P06536 524-795 F620S/C656G limits assumed): T1 sequence (P06536 524-795 F620S/C656G limits assumed)
The experiment in a line: β-galactosidase activity assay, strain V375Y.
Excerpt: as §1, §2

Experiment [5] has as its target T5, LexA (GSG)2rGR2 / B42 eDHFR (UniProt P06536+P0ABQ4, C656G/F620S).
T5 construct: expressed in transfected cells; host or cells: S. cerevisiae FY250 with pMW106 lacZ reporter
T5 sequence (P06536 524-795 F620S/C656G limits assumed): T1 sequence (P06536 524-795 F620S/C656G limits assumed)
T5 sequence (P0ABQ4 1-159): T1 sequence (P0ABQ4 1-159)
The experiment in a line: β-galactosidase activity assay, strain V506Y.
Excerpt: as §1, §2

A further experiment has as its target T6, LexA rGR2 / B42 mDHFR (UniProt P00375+P06536, C656G/F620S).
T6 construct: rat Glucocorticoid Receptor (aa 524-795) with point mutations; expressed in transfected cells; host or cells: S. cerevisiae FY250
T6 sequence (P06536 524-795 F620S/C656G limits assumed): T1 sequence (P06536 524-795 F620S/C656G limits assumed)
T6 sequence (P00375 1-187): T2 sequence (P00375 1-187)
The experiment in a line: β-galactosidase activity assay, strain V507Y.
Excerpt: as §1, §2

In experiment [6] the target is T7, LexA rGR2 / B42 (GSG)2eDHFR (UniProt P06536+P0ABQ4, C656G/F620S).
T7 construct: expressed in transfected cells; host or cells: S. cerevisiae FY250 with pMW106 lacZ reporter
T7 sequence (P06536 524-795 F620S/C656G limits assumed): T1 sequence (P06536 524-795 F620S/C656G limits assumed)
T7 sequence (P0ABQ4 1-159): T1 sequence (P0ABQ4 1-159)
The experiment in a line: β-galactosidase activity assay, strain V509Y.
Excerpt: as §1, §2

The target of experiment [7] is T8, LexA (GSG)2eDHFR / B42 gly6rGR2 (UniProt P06536+P0ABQ4, C656G/F620S).
T8 construct: rat Glucocorticoid Receptor (aa 524-795) with point mutations; expressed in transfected cells; host or cells: S. cerevisiae FY250
T8 sequence (P0ABQ4 1-159): T1 sequence (P0ABQ4 1-159)
T8 sequence (P06536 524-795 F620S/C656G limits assumed): T1 sequence (P06536 524-795 F620S/C656G limits assumed)
Nature of the experiment: β-galactosidase activity assay, strain V499Y.
Excerpt: as §1, §2

The target of a further experiment is T9, LexA rGR2 / B42 eDHFR (UniProt P06536+P0ABQ4, C656G/F620S).
T9 construct: rat Glucocorticoid Receptor (aa 524-795) with point mutations; expressed in transfected cells; host or cells: S. cerevisiae FY250
T9 sequence (P06536 524-795 F620S/C656G limits assumed): T1 sequence (P06536 524-795 F620S/C656G limits assumed)
T9 sequence (P0ABQ4 1-159): T1 sequence (P0ABQ4 1-159)
The experiment in a line: β-galactosidase activity assay, strain V505Y.
Excerpt: as §1, §2

A further experiment deals with T10, LexA mDHFR / B42 rGR2 (UniProt P00375+P06536, C656G/F620S).
T10 construct: rat Glucocorticoid Receptor (aa 524-795) with point mutations; expressed in transfected cells; host or cells: S. cerevisiae FY250
T10 sequence (P00375 1-187): T2 sequence (P00375 1-187)
T10 sequence (P06536 524-795 F620S/C656G limits assumed): T1 sequence (P06536 524-795 F620S/C656G limits assumed)
Nature of the experiment: β-galactosidase activity assay, strain V495Y.
Excerpt: as §1, §2

Turning to `C[C@@H]1C[C@H]2C3CCC4=CC(=O)C=C[C@]4(C)[C@@]3(F)[C@@H](O)C[C@]2(C)[C@@]1(O)C(=O)NCCSCc1cccc(CSCC[C@H](NC(=O)c2ccc(N(C)Cc3cnc4nc(N)nc(N)c4n3)cc2)C(=O)O)c1` (stereo partly shown) [DM1], the B-gal activity in experiment [1] is reported as 601 β-galactosidase units; in experiment [2], 12 β-galactosidase units; in [3], −30 β-galactosidase units; in experiment [4] it was 4978 β-galactosidase units; in [5], 519 β-galactosidase units; at LexA rGR2 / B42 mDHFR, −7 β-galactosidase units. Besides, the B-gal activity was 307 β-galactosidase units in experiment [6], 4368 β-galactosidase units in [7], 557 β-galactosidase units at LexA rGR2 / B42 eDHFR and 15 β-galactosidase units on LexA mDHFR / B42 rGR2.
